From ChEMBL document CHEMBL1146786, “Lingshuiol, a novel polyhydroxyl compound with strongly cytotoxic activity from the marine dinoflagellate Amphidinium sp” (Bioorg Med Chem Lett, 2004)

Assays:
HL-60 = experiment: In vitro cytotoxic activity of compound against HL-60 cell line; format: functional, cell-based; settings: Homo sapiens
A549 = experiment: In vitro cytotoxic activity of compound against A-549 cell line; format: functional, cell-based; settings: Homo sapiens

C=CCCCCCCCCCC/C=C/C(O)C(O)C1OC(C(O)C(O)C(=C)CCC(O)C2CC(O)C(O)C(C(O)C(O)/C=C(\C)CC(O)CC(O)C(O)C(O)C(O)C(O)C(C)CC(O)C(O)CC(C)/C=C/CCC(O)CC(=O)/C=C/CCCCC(O)CO)O2)CC(O)C1O (configuration not stated) [LINGSHUIOL]
IC50 (HL-60): 0.23 µM | IC50 (A549): 0.21 µM
